Experimental data from patent publication US8647644B1, “Methods of using capped mesoporous silicates” (Iowa State University Research Foundation, Inc., priority 2006, dated 2014).
Where a name gives a salt, the structure may show the parent alone.

Key:
[1] = tested on: type-1 astrocytes; assay: Intracellular calcium imaging (Fura-2) of astrocyte cultures; details: no MSNs
Procedure: After incubation, tissue was rinsed with EBSS solution and incubated for 5 minutes in trypsin-inhibitor solution (1 mg/mL; Gibco-Invitrogen Co.). After being rinsed, once with EBSS solution and once with culture medium (consisting of α-minimum essential medium (α-MEM; Gibco-Invitrogen Co.) supplemented with 10% heat-inactivated fetal bovine serum (FBS; Gibco-Invitrogen Co.) and 1.00 mL of penicillin-streptomycin solution (Sigma-Aldrich Co.) per 100 mL), the tissue was mechanically dispersed in culture medium by triturating through a fire-polished glass pipet. The cell suspension was transferred to sterile 15-mL centrifuge tubes and spun at 1000 g for 10 minutes. Cell pellets were resuspended in culture medium (α-MEM supplemented with 10% heat-inactivated FBS and 1.00 mL of penicillin-streptomycin solution per 100.00 mL) and plated in culture flasks. […] Culture medium was changed every 2 to 3 days. When mixed cultures reached confluence (9-12 days), the flasks were shaken (260 rpm) for 90 minutes to remove microglia and dividing type I astroglia. After shaking the cells, medium was replaced, and the flasks were incubated for 1 hour to equilibrate with CO2 in the fresh medium. […]
The effect of experimental manipulation on the intracellular calcium concentration ([Ca^2+]i) of cultured cells was evaluated by ratiometric imaging techniques. […]

[2] = tested on: tobacco mesophyll protoplasts; assay: Endocytosis experiments with tobacco mesophyll protoplasts (Example 11); assay type: cell-based, Nicotiana tabacum; details: 1 mM LYCH, overnight in W5
Procedure: Tobacco protoplasts were mixed with MSN in W5 media (Spangenberg et al., supra) using 10^6 cells for 10 μg of MSN. The mix was incubated overnight in 3 mL of W5 in BD Falcon 6-well flat-bottom plates. To remove non-engulfed MSN (except for FIG. 20A), the mixture were overlaid on K4 medium (Spangenberg et al., supra) and centrifuge at 100×g for 10 minutes at room temperature. The protoplasts at the interphase were collected and evaluated. Isolated live cells experiments images were taken using a 63× oil objective with a Leica TCS/NT laser scanning confocal microscope equipped with Argon 488 nm and Krypton 568 nm lasers plus a double dichroic DD488/568 filter. To detect fluorescence in the green channel, a combination of RSP580 and BP525/25 filters was used under wavelength between 500 and 550 nm. For the red channel, wavelength above 590 nm was selected using a LP590 filter. During scanning, pinhole was maintained at 1 for all images. Images were acquired using TCS software and analyzed using ImageJ (Abramoff et al., Biophotonics Int'l 2004, 11:36). Whole tissue images were taken under either bright field or GFP band pass exciter 460-490 nm with emission filter 510-550 nm using an Olympus SHZ10 stereoscope coupled to a SPOT RT color CCD camera (Diagnostic Instrument Inc.). Images were acquired with SPOT software.

[3] = Loading of vancomycin and ATP into linker-MSN with CdS capping, HPLC of filtrate; assay type: physicochemical; details: for loading efficiency: CdS-capped linker-MSN; for amount of mesopore-encapsulated molecule: per 100.0 mg of linker-MSN material, from concentration decrease in filtrate
Procedure: Purified linker-MSN material from sub-part (b) below (100.00 mg) was incubated in a PBS buffer solution (0.60 mL, pH 7.4) of ATP or vancomycin (3.00 μmol in both cases) for 24 hours. Mercaptoacetic acid-functionalized CdS nanoparticles from sub-part (c) below (0.15 mmol) were dissolved in 2.00 mL of PBS buffer with vancomycin or ATP (0.01 mmol in both cases); 1-[3-(dimethylamino)propyl]-3-ethylcarbodiimide hydrochloride (EDC) (57.50 mg, 0.30 mmol) was added to the CdS/drug solution. The reaction mixture was allowed to stir for 24 hours, followed by centrifuging the suspension at 12,000 rpm for 3 minutes. The resulting precipitates (ATP- or vancomycin-loaded, CdS-capped MSNs) were isolated and dried under vacuum.
The water-soluble CdS nanocrystals (average particle diameter of 2.0 nm) with mercaptoacetic acid groups were covalently captured and formed amide bonds by reacting with the mesopore surface-bound 2-(propyldisulfanyl)ethylamine linkers of the MSN/drug composite material in aqueous solutions. The resulting reaction suspensions were centrifuged, and the CdS-capped MSN/drug composite materials along with the unreacted CdS nanoparticles were filtered. The concentrations of the free vancomycin and ATP molecules in the filtrate were then determined by HPLC. The calculated concentration decreases of solution vancomycin and ATP were attributed to the amounts of mesopore-encapsulated vancomycin (2.5 μmol) and ATP (4.7 μmol) per 100.0 mg of linker-MSN material. These numbers correspond to ca. 83.9 and 30.3 mol % loading efficiency, respectively.

[4] = DTT-induced drug/neurotransmitter release study (HPLC); assay type: physicochemical; details: for release within 24 hours as share of total release seen in 3 days: from CdS-capped MSN after 18.5 mM DTT; for amount released after 3 days of DTT-induced uncapping / encapsulated molecule released after 3 days of DTT-induced uncapping: from CdS-capped MSN, PBS pH 7.4
Procedure: CdS-capped MSN with vancomycin or ATP (10.00 mg) material was dispersed in 1.50 mL of PBS buffer (pH 7.4), followed by repeating wash/sonication/centrifugation cycles for five times to remove physisorbed, uncapped vancomycin or ATP molecules on the exterior surface of the material. The purified MSN/drug composite was redispersed in 3.50 mL of PBS buffer (pH 7.4). Aliquots were taken every 4 hours over a time period of 12 hours from the MSN/water suspension and injected to an analytical HPLC system (Hitachi LC/3DQMS with a reverse phase C18 column (Vydac), 0.4 cm×25 cm) to monitor the leaching of the mesoporous channel encapsulated vancomycin or ATP molecules. After 12 hours, dithiothreitol (DTT, 18.50 mM) was added to the suspension to cleave the disulfide linkage between the CdS nanoparticle and the MSN. The kinetic profiles of the DTT-induced release of vancomycin and ATP were monitored by following two literature-reported HPLC separation conditions. The peaks/areas at 280 and 258 nm were monitored/integrated for the quantitative analysis of amounts of released vancomycin and ATP, respectively. See Farin et al., J. Pharm. Biomed. Anal. 1998, 18:367; and Veciana-Nogues et al., Food Chem. 1997, 59:467.

[5] = tested on: protoplasts; details: 1-2 mg of DNA per 10^6 cells; cited from earlier work

## OCCS [ME]
[1]; perfusion 1.0 mM for 5 minutes
  change of intracellular [Ca2+]i: no increase in [Ca^2+]i

## Lucifer Yellow CH, lithium salts
[2]
  protoplasts that underwent endocytosis: 26±7%

## Nc1ncnc2c1ncn2[C@@H]1O[C@H](COP(=O)([O-])OP(=O)([O-])OP(=O)(O)O)[C@@H](O)[C@H]1O.[Na+].[Na+] [ATP, adenosine triphosphate disodium salt]
[3]
  loading efficiency: ~30.3 mol %
  amount of mesopore-encapsulated molecule: 4.7 µmol
[1]; 100.0 μM, ME-treated astrocytes
  change of intracellular [Ca2+]i: obvious increases in [Ca^2+]i
[4]
  release within 24 hours as share of total release seen in 3 days: 85%
  amount released after 3 days of DTT-induced uncapping: 1.3 µmol
  encapsulated molecule released after 3 days of DTT-induced uncapping: 28.2%

## CN[C@H](CC(C)C)C(=O)N[C@H]1C(=O)N[C@@H](CC(N)=O)C(=O)N[C@H]2C(=O)N[C@H]3C(=O)N[C@H](C(=O)N[C@H](C(=O)O)c4cc(O)cc(O)c4-c4cc3ccc4O)[C@H](O)c3ccc(c(Cl)c3)Oc3cc2cc(c3O[C@@H]2O[C@H](CO)[C@@H](O)[C@H](O)[C@H]2O[C@H]2C[C@](C)(N)[C@H](O)[C@H](C)O2)Oc2ccc(cc2Cl)[C@H]1O [vancomycin, Vancomycin hydrochloride]
[3]
  loading efficiency: ca. 83.9 mol %
  amount of mesopore-encapsulated molecule: 2.5 µmol
[4]
  release within 24 hours as share of total release seen in 3 days: 85%
  amount released after 3 days of DTT-induced uncapping: 1.6 µmol
  encapsulated molecule released after 3 days of DTT-induced uncapping: 53.8%

## polyethylene glycol [polyethylene glycol (PEG)]
[5]
  transient transformation efficiency: 40-90%
